Measured values: publication PMC5478727, “A Novel Small Molecule GDNF Receptor RET Agonist, BT13, Promotes Neurite Growth from Sensory Neurons in Vitro and Attenuates Experimental Neuropathy in the Rat” (Frontiers in Pharmacology, 2017)

Assays:
[1] = target: T1, serotonin receptor 5-HT1A (Homo sapiens, UniProt P08908); assay: CEREP 5-HT1A (h) (agonist radioligand); type: binding; settings: BT13 1 μM; Cat. No. 0131; average of duplicate; read-out: Percentage of inhibition/potentiation from control
T1 construct: purchased CEREP (contract assay) 0131

[2] = target: T2, opioid receptor kappa (KOP) (Rattus norvegicus, UniProt P34975); assay: CEREP Kappa (KOP) (agonist radioligand); type: binding; settings: BT13 1 μM; Cat. No. 1971; average of duplicate; read-out: Percentage of inhibition/potentiation from control
T2 construct: purchased CEREP (contract assay) 1971

[3] = target: opioid receptor mu (MOP) (Homo sapiens, UniProt P35372); assay: CEREP Mu (MOP) (h) (agonist radioligand); type: binding; settings: BT13 1 μM; Cat. No. 0118; average of duplicate; read-out: Percentage of inhibition/potentiation from control
[4] = target: T3, adenosine receptor A2B (Homo sapiens, UniProt P29275); assay: CEREP A2B (h) (antagonist radioligand); type: binding; settings: BT13 1 μM; Cat. No. 0005; average of duplicate; read-out: Percentage of inhibition/potentiation from control
T3 construct: purchased CEREP (contract assay) Cat# 0005

[5] = target: T4, GFRα1/RET (Homo sapiens, UniProt P07949); assay: Luciferase reporter-gene assay (PathDetect Elk-1), GFRα1/RET reporter cells; type: cell-based; settings: GFRα1/RET reporter cell line
T4 construct: full-length human RET (long isoform) in pCR3.1; expressed in transfected cells; host or cells: MG87 murine fibroblasts (MG87RET + PathDetect Elk-1 + GFRα1)

[6] = target: T5, CYP2D6 (Homo sapiens, UniProt P10635); assay: CYP inhibition, fluorescent assay; type: biochemical; settings: read-out: Inhibition of CYP isoforms (IC50), CYP2D6
T5 construct: Cyathus Exquirere (contract laboratory)

[7] = target: T6, serotonin receptor 5-HT2C (Homo sapiens, UniProt P28335); assay: CEREP 5-HT2C (h) (agonist radioligand); type: binding; settings: BT13 1 μM, Cat. No. 1003, average of duplicate, read-out: Percentage of inhibition/potentiation from control
T6 construct: purchased CEREP (contract assay) 0137, 1003
T6 sequence (P28335 33-458): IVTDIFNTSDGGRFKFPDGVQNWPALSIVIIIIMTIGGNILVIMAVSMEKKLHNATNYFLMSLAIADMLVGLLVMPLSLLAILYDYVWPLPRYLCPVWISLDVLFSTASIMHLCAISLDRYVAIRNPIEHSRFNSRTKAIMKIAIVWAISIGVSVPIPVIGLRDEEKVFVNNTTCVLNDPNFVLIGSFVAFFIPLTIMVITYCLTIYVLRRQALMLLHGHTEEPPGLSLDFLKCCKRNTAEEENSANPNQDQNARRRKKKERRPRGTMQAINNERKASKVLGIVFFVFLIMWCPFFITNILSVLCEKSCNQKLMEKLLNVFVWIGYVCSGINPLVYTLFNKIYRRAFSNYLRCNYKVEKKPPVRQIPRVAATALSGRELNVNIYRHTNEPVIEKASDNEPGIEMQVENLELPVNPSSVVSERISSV

[8] = target: dopamine receptor D2L (Homo sapiens, UniProt P14416); assay: CEREP D2L (h) (antagonist radioligand); type: binding; settings: BT13 1 μM; Cat. No. 1405; average of duplicate; read-out: Percentage of inhibition/potentiation from control
[9] = target: T6, serotonin receptor 5-HT2C; assay: CEREP 5-HT2C (h) (antagonist radioligand); type: binding; settings: BT13 1 μM, Cat. No. 0137, average of duplicate, read-out: Percentage of inhibition/potentiation from control
[10] = system: healthy rats; assay: Acute nociception and motor coordination in healthy animals; type: in vivo, rat; settings: BT13 25 mg/kg s.c.
[11] = target: T7, GDNF receptor complexes (cells overexpressing GFRα1/RET) (Homo sapiens, UniProt P07949); assay: Displacement of 125I-GDNF; type: binding; settings: BT13 50 μM; n = 5
T7 construct: full-length human RET (long isoform) in pCR3.1; expressed in transfected cells

[12] = target: neurokinin receptor NK1 (Homo sapiens, UniProt P25103); assay: CEREP NK1 (h) (agonist radioligand); type: binding; settings: BT13 1 μM; Cat. No. 0100; average of duplicate; read-out: Percentage of inhibition/potentiation from control
Sequence of neurokinin receptor NK1 (P25103 whole entry): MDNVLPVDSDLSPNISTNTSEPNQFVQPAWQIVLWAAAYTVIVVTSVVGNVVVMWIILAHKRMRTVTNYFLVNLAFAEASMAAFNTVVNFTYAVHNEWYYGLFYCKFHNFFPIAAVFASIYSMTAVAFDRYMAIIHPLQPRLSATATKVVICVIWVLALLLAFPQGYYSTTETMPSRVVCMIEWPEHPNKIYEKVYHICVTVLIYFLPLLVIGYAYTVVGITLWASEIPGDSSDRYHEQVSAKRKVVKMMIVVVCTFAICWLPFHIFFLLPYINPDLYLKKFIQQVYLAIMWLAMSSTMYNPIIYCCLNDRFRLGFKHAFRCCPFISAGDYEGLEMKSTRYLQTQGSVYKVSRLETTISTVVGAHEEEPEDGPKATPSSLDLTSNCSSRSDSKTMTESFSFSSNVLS

T4 sequence (P07949 29-1114): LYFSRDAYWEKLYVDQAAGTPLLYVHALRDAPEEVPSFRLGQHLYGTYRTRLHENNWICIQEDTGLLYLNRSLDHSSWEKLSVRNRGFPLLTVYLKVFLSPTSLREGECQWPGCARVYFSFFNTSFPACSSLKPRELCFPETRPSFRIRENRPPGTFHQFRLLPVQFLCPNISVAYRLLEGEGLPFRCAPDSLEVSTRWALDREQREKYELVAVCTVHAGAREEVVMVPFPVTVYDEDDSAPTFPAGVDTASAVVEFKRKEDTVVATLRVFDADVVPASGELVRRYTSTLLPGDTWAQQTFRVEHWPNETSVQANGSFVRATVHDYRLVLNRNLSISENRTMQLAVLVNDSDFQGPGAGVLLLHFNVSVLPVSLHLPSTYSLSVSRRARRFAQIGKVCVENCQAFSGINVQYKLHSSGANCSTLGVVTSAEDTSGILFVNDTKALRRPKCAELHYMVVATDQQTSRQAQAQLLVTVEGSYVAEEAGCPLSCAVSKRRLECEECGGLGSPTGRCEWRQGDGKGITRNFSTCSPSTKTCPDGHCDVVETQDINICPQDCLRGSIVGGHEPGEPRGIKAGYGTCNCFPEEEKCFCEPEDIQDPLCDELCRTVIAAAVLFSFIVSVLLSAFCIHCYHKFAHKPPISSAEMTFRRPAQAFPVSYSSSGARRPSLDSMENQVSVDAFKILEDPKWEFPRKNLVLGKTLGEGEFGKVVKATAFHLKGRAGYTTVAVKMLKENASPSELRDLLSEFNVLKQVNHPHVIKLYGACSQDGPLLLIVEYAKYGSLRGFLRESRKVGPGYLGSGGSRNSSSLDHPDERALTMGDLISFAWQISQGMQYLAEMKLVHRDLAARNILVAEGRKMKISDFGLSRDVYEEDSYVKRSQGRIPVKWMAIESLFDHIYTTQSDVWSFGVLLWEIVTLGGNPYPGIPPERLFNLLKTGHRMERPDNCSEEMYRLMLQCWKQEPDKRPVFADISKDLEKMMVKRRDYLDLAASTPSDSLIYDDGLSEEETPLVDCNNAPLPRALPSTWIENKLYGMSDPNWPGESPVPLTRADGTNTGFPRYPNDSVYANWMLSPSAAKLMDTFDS
T1 sequence (P08908 whole entry): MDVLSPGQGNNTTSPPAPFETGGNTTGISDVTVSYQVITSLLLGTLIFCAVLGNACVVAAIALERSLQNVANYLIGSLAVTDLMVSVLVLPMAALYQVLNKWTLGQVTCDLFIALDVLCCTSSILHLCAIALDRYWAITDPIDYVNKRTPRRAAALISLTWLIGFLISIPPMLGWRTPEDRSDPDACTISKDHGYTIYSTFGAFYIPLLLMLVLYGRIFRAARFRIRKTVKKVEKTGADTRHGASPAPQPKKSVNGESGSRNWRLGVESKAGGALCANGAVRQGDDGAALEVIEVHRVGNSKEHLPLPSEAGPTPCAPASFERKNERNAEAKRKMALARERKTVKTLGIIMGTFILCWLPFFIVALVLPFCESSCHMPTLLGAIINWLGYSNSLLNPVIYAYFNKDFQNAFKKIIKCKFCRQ
Sequence of opioid receptor mu (MOP) (P35372 whole entry): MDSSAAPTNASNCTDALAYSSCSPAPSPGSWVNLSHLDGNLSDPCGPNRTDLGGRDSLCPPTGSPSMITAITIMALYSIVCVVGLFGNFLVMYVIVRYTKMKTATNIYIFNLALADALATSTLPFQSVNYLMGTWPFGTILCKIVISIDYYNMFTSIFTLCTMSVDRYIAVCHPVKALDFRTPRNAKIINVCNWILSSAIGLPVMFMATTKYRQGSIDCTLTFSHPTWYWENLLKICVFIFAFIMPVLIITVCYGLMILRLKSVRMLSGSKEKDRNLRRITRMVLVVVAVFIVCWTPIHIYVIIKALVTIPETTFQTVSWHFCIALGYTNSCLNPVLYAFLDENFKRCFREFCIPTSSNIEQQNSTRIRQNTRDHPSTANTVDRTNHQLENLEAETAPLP
T5 sequence (P10635 whole entry, canonical isoform): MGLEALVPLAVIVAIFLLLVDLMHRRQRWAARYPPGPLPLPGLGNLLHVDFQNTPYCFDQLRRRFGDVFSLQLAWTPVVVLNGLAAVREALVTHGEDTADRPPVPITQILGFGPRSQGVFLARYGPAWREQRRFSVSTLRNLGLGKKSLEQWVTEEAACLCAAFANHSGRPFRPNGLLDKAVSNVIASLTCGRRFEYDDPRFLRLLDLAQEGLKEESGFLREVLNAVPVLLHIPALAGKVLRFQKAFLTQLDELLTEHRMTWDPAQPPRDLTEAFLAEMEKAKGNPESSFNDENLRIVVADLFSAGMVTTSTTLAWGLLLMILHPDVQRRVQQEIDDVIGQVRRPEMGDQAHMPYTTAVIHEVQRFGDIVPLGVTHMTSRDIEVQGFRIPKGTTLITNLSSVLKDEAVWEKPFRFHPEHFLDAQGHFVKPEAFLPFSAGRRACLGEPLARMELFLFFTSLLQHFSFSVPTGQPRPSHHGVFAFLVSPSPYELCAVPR
Sequence of dopamine receptor D2L (P14416 whole entry): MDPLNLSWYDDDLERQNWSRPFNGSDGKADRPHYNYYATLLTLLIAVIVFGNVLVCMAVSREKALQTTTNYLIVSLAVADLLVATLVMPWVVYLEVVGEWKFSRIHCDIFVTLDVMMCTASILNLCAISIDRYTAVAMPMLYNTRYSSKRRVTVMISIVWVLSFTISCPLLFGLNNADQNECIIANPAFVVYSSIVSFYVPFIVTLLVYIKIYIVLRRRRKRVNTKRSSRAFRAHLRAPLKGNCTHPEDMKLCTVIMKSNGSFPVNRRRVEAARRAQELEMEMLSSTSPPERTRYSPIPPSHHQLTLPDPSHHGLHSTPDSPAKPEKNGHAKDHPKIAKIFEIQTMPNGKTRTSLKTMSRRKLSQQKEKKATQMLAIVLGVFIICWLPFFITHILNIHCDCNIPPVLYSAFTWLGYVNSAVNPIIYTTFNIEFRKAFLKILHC
T7 sequence (P07949 29-1114, one chain of several): as the sequence (P07949 29-1114) above
T2 sequence (P34975 whole entry): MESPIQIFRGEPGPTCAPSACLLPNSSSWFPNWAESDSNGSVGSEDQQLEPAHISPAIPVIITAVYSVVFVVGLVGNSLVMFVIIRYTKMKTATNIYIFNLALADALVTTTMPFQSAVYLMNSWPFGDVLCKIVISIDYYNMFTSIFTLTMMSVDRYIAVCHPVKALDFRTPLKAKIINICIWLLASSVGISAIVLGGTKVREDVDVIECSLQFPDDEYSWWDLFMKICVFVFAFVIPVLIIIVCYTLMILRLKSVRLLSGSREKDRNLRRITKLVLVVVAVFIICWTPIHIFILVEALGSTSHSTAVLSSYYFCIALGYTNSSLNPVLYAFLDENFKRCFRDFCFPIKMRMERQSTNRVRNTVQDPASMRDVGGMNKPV
T3 sequence (P29275 whole entry): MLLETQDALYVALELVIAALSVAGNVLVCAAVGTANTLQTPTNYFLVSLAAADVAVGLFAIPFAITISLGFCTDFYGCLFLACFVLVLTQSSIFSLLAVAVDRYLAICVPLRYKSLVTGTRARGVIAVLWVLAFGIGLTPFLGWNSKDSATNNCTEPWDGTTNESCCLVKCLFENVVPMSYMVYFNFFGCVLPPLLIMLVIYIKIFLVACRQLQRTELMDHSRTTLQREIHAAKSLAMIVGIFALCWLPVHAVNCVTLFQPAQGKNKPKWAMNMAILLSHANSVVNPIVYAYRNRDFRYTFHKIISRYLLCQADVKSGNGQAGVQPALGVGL

## CCN(CC)S(=O)(=O)c1ccc(OC)c(N2CCN(C(=O)c3ccc(F)cc3C(F)(F)F)CC2)c1 [BT13]
[1]
  inhibition at 1 µM: -8%
[2]
  inhibition at 1 µM: 0%
[3]
  inhibition at 1 µM: 1%
[4]
  inhibition at 1 µM: -14%
[5]
  efficacy, fold induction of luciferase above baseline: 11.6 fold
[5]; 0.1–50 μM, read-out: EC50, luciferase activation
  EC50: 17.4 µM
[6]
  IC50: > 100 µM
[7]
  inhibition at 1 µM: 6%
[8]
  inhibition at 1 µM: -3%
[9]
  inhibition at 1 µM: 11%
[10]
  baseline sensitivity to mechanical stimuli (paw pressure test): no significant effect
  baseline sensitivity to thermal stimuli (acetone test): no significant effect
  baseline sensitivity to thermal stimuli (hot plate): no significant effect
  baseline sensitivity to thermal stimuli (tail flick): no significant effect
  motor performance (rotarod test): no significant effect
[11]
  reduction of 125I-GDNF binding: 25 ± 10.2%
[12]
  inhibition at 1 µM: -19%
